Square brackets hold non-standard residues; d marks the D form. Peptide text beside a SMILES is read from it. * marks the point of attachment. Trp(1-Me) = Cn1cc(C[C@H](N)C(=O)O)c2ccccc21; Hyp = O=C(O)[CH]1C[CH](O)CN1; Phg = N[CH](C(=O)O)c1ccccc1; pGlu = O=C1CC[CH](C(=O)O)N1; Pip = O=C(O)[C@@H]1CCCCN1; ΔPro = O=C(O)[CH]1C=CCN1; Cbz = O=C(OCc1ccccc1)*; Aze = O=C(O)[CH]1CCN1; Boc = CC(C)(C)OC(=O)*
Tests used:
[1] = system: spontaneously hyper-tensive rats (SHR from the company Charles River); assay: Pressure test in awake spontaneously hypertensive rats (anti-hypertensive activity); assay type: in vivo
Description: (§1) In the following examples will first of all be given the data necessary for synthesis of the compounds according to the present invention. There will then be given data regarding their pharmacological activity, using methods widely known to be valid. In particular, for the pressure tests, spontaneously hyper-tensive rats were used (SHR from the company Charles River), operated in such a way as to enable pressure to be read even when the animals were awake and free to move. In order to evaluate the analgesic activity, the Hot Plate and Writhing Tests were used. For the anti-inflammatory effect the test of carraginine edema was used. Finally, for immuno-modulating activity the evaluation of the stimulation of growth of human lymphocites in culture was resorted to, after the addition of specific antigens.

[2] = system: human lymphocites in culture; assay: Stimulation of growth of human lymphocytes in culture after addition of specific antigens (immuno-modulating activity); assay type: cell-based
Description: as §1, with “antigens. The results obtained for each synthesized compound are given at the end of each example.” for “antigens.”

[3] = Analgesic activity, test not given (Hot Plate and Writhing Tests used); assay type: in vivo; conditions: test and dose not stated
Description: as §1

[4] = system: carraginine edema; assay: Carrageenin edema test (anti-inflammatory effect); assay type: in vivo; conditions: dose not stated
Description: as §1

[5] = Writhing test (analgesic activity); assay type: in vivo; conditions: dose not stated
Description: as §1, with “antigens. The results obtained for each synthesized compound are given at the end of each example.” for “antigens.”

[6] = Hot Plate test (analgesic activity); assay type: in vivo
Description: as §1, with “antigens. The results obtained for each synthesized compound are given at the end of each example.” for “antigens.”

## COC(=O)[C@H](Cc1cn(C)c2ccccc12)NC(=O)[C@H](C)NC(=O)[C@@H]1CCCN1C(=O)OCc1ccccc1 [compound 7, Z-(L)-Pro-(L)-Ala-(1)-Me-(L)-TrpOMe] (Cbz-Pro-Ala-[Trp(1-Me)]-OMe)
[1]; 2 mg/Kg i.v.
  anti-hypertensive effect: good
  reduction in pressure: 10%

## COC(=O)C(Cc1c[nH]c2ccccc12)NC(=O)C(CC(C)C)NC(=O)C1CCCN1C.Cl (stereo not shown) [compound 10, N-Me-(L)-Pro-(L)-Leu-(L)-TrpOMe.HCl]
[1]; 2 mg/Kg i.v.
  anti-hypertensive effect: excellent
  reduction in pressure: 15-20%
[2]
  immune response: slightly increased
[3]
  analgesic effect: low

## Boc-(L)-Mep-(L)-Leu-(L)-TrpOMe [compound 12]
[1]; dose not stated
  anti-hypertensive effect: bland
[4]
  anti-inflammatory effect: reduction of the inflammatory response

## COC(=O)C(NC(=O)CNC(=O)C1CCC(=O)N1)c1ccccc1 (stereo not drawn) [compound 22, (L)-Pyr-Gly-(L)-PhgOMe] ([pGlu]-Gly-[Phg]-OMe; configuration not given here)
[1]; 4 mg/Kg i.p.
  anti-hypertensive effect: excellent
  pressure values reduced: 20%
[2]
  immune response: increase
[4]
  anti-inflammatory effect: very good
  reduction of edema: 70%

## COC(=O)C(Cc1c[nH]c2ccccc12)NC(=O)C(CC(C)C)NC(=O)C1CC(O)CN1C(=O)OCc1ccccc1 (stereo not drawn) [compound 16, Z-(L)-Hyp-(L)-Leu-(L)-TrpOMe] (Cbz-[Hyp]-Leu-Trp-OMe; configuration not given here)
[1]; dose not stated
  anti-hypertensive effect: bland
[3]
  analgesic effect: modest

## Z-(L)-Pyr-(L)-Leu-(L)-TrpOMe [compound 19]
[1]; dose not stated
  anti-hypertensive effect: slight
[4]
  anti-inflammatory effect: fair

## (L)-Pyr-Gly-(L)-Pme [compound 23]
[5]
  reduction of contorsions during the Writhing test: 80%
[1]; 8 mg/Kg i.p.
  anti-hypertensive effect: good
[2]
  immune response: good
[3]
  analgesic effect: excellent

## (L)-Pyr-Gly-(L)-CypOMe [compound 24]
[1]; dose not stated
  anti-hypertensive effect: bland
[4]
  anti-inflammatory effect: moderate

## COC(=O)[C@H](Cc1c[nH]c2ccccc12)NC(=O)[C@H](CC(C)C)NC(=O)c1ccc[nH]1 [compound 9, 2-Pyrrolyl-(L)-Leu-(L)-TrpOMe]
[1]; dose not stated
  anti-hypertensive effect: slight
[4]
  anti-inflammatory effect: bland reduction

## Z-(L)-Pro-(L)-Ala-(L)-OmtOMe [compound 4]
[1]; 8 mg/Kg i.v.
  anti-hypertensive effect: bland
[2]
  immune response: slightly increased

## COC(=O)[C@H](Cc1c[nH]c2ccccc12)NC(=O)[C@H](CC(C)C)NC(=O)c1ccco1 [compound 8, 2-Fur-(L)-Leu-(L)-TrpOMe]
[1]; 4 mg/Kg i.v.
  anti-hypertensive effect: slight
[2]
  immune response: strongly stimulated even with small doses of peptide
[4]
  anti-inflammatory effect: slight

## COC(=O)[C@H](Cc1c[nH]c2ccccc12)NC(=O)[C@H](CC(C)C)NC(=O)[C@@H]1CCCCN1C(=O)OCc1ccccc1 [compound 15, Z-(L)-Pip-(L)-Leu-(L)-TrpOMe] (Cbz-[Pip]-Leu-Trp-OMe)
[1]; 2 mg/Kg i.v.
  anti-hypertensive effect: good
  reduction in pressure: up to 30%
[2]
  immune response: slight increase
[4]
  anti-inflammatory effect: consistent

## COC(=O)[C@@H](NC(=O)[C@H](C)NC(=O)[C@@H]1CCCN1C(=O)OCc1ccccc1)c1ccccc1 [compound 5, Z-(L)-Pro(L)-Ala-(L)-PhgOMe] (Cbz-Pro-Ala-[Phg]-OMe)
[1]; 8 mg/Kg i.p.
  anti-hypertensive effect: bland
[6]; dose not stated
  analgesic effect using the Hot Plate test: moderate

## Z-(L)-Pyr-(L)-Leu-(S)-CytOMe [compound 20]
[1]; dose not stated
  anti-hypertensive effect: bland
[4]
  anti-inflammatory effect: fair

## Z-(L)-Pro-(L)-Ala-CytH [compound 3]
[1]; 8 mg/Kg i.p.
  anti-hypertensive effect: bland

## COC(=O)C(Cc1c[nH]c2ccccc12)NC(=O)C(CC(C)C)NC(=O)C1CCN1C(=O)OCc1ccccc1 [compound 17, z-(S)-Aze-(L)-Leu-(L)-TrpOMe] (Cbz-[Aze]-Leu-Trp-OMe; configuration not given here)
[1]; dose not stated
  anti-hypertensive effect: slight
[4]
  anti-inflammatory effect: bland

## Z-(L)-Pro-(L)-Ala-TrpH [compound 2]
[1]; dose not stated
  anti-hypertensive effect: comparable to that of compound 1
[2]
  immune response: increased, but to a lesser extent than in the previous compound

## (L)-Pyr-(L)-Leu-(S)-CytOMe [compound 25]
[1]; dose not stated
  anti-hypertensive effect: bland
[3]
  analgesic effect: weak

## Z-(L)-Pro-(L)-Ala-(S)-CytOEt [compound 1]
[1]; 4 mg/Kg i.p.
  anti-hypertensive effect: good
  duration of the anti-hypertensive effect: maintained for a number of hours
  pressure values reduced: 15-20%
[2]; PHA stimulation
  response of lymphocytes stimulated by phytohemoagglutinine (PHA): increases
[6]; 4 mg/Kg i.p.
  pain killing effect under the Hot Plate test: slight

## COC(=O)C(Cc1c[nH]c2ccccc12)NC(=O)C(CC(C)C)NC(=O)C1C=CCN1C(=O)OC(C)(C)C (stereo not drawn) [compound 13, Boc-\/^3,4-(L)-Pro-(L)-Leu-(L)-TrpOMe] (Boc-[ΔPro]-Leu-Trp-OMe; configuration not given here)
[1]; dose not stated
  anti-hypertensive effect: slightly anti-hypertensive
[2]
  immune response: slightly increases

## Z-(L)-Pro-(L)-Ala-(L)-Pme [compound 6]
[5]
  reduction of contorsions during the Writhing test: 70%
[1]; 2 mg/Kg i.v.
  anti-hypertensive effect: good
[1]; 2 mg/Kg i.v., after one hour
  pressure reduced: approximately 25%
[2]
  immune response: more consistent
[4]
  anti-inflammatory effect: rather weak
[6]; dose not stated
  extension of time in the Hot Plate test: 25%
[3]
  analgesic effect: good

## (S)-Tfc-(L)-Leu-(L)-TrpOMe [compound 18]
[1]; dose not stated
  anti-hypertensive effect: bland
[2]
  immune response: moderate

## Z-(S)-Dhi-(L)-Leu-(L)-TrpOMe [compound 14]
[1]; dose not stated
  anti-hypertensive effect: bland reduction
[3]
  analgesic effect: moderate

## Z-(L)-Pro-(L)-Ala-(L)-CypOMe [compound 11]
[1]; dose not stated
  anti-hypertensive effect: slight
[4]
  anti-inflammatory effect: moderate

## Z-(L)-Pyr-(L)-Leu-(S)-CypOMe [compound 21]
[1]; dose not stated
  anti-hypertensive effect: slight
[2]
  immune response: good
